Data on twelve molecules can be found in patent publication US20240208904A1, “CRYSTALLINE POTASSIUM SALT OF 1-ETHYL- N -((1,2,3,5,6,7-HEXAHYDRO- S -INDACEN-4-YL)CARBAMOYL)PIPERIDINE-4 -SULFONAMIDE” (Hoffmann-La Roche Inc., priority 2021, published 2024).

The conditions of data set [1]: for Limit solubilities after 48 h at 20° C.; measured by Q 1H NMR: 4-aminoindacene (level of hydrolytic precursor measured in solution): 50 mg/ml.
Procedure: (§1) Crystalline 1-ethyl-N-((1,2,3,5,6,7-hexahydro-s-indacen-4-yl)carbamoyl)piperidine-4-sulfonamide salts (50 mg, 1 wt.) or crystalline 1-ethyl-N-((1,2,3,5,6,7-hexahydro-s-indacen-4-yl)carbamoyl)piperidine-4-sulfonamide free acid (as a control) (50 mg, 1 wt.) were stirred in purified water (1000 μl, 20 vol.) at 20° C. Limit solubilities (mg/ml) were determined after 48 hours at 20° C. measured by Q ^1H NMR (measured against an internal standard, 2,3,5,6-tetrachloronitrobenzene).
Data set [2] is described as follows: Solubility determinations: limit solubility in purified water by Q 1H NMR.
Procedure: as §1
Data set [3] in a line: Competitive suspension equilibration of Form A and Form D in anhydrous acetonitrile. The data set is classed as physicochemical. To be noted: versus Form D, 20° C. or 40° C., 96 hours. As to the method:
Form A (50 mg, 1 wt.) and Form D (amounts see Table 16) were charged to a vial and anhydrous acetonitrile (1000 μl, 20 vol.) was added. The vials were stirred at 20° C. or 40° C.for 96 hours.

Data set [4] is described as follows: Mechanical grinding of Form A, XRPD analysis. The data set is classed as physicochemical. The settings on record: ground for 24 hours. As to the method: Form A (50.4 mg) was ground for 24 hours. The product was recovered and analysed by XRPD to determine if any phase changes had occurred.
The nature of data set [5]: Water content / hygroscopicity of polymorphs. The data set is classed as physicochemical.
The nature of data set [6]: General assessment of polymorph solubility and stability to water/humidity. Format: physicochemical.

Entries after “also recorded” stand apart in the source; their conditions may differ.

For `CCN1CCC(S(=O)(=O)NC(=O)Nc2c3c(cc4c2CCC4)CCC3)CC1` [Form 3A, 1-ethyl-N-((1,2,3,5,6,7-hexahydro-s-indacen-4-yl)carbamoyl)piperidine-4-sulfonamide], in data set [1], the “Limit solubilities after 48 h at 20° C.; measured by Q 1H NMR: Free acid form equivalent” value (“Limit solubilities … Free acid form equivalent” below) was 38.0 mg/mL and the “Limit solubilities after 48 h at 20° C.; measured by Q 1H NMR: 4-aminoindacene (level of hydrolytic precursor measured in solution)” value was found to be 0.0 mg/mL.
Regarding `CCN1CCC(S(=O)(=O)NC(=O)Nc2c3c(cc4c2CCC4)CCC3)CC1` [Form 3B, 1-ethyl-N-((1,2,3,5,6,7-hexahydro-s-indacen-4-yl)carbamoyl)piperidine-4-sulfonamide], in data set [1], the “Limit solubilities … Free acid form equivalent” value was 6.3 mg/mL and the “Limit solubilities after 48 h at 20° C.; measured by Q 1H NMR: 4-aminoindacene (level of hydrolytic precursor measured in solution)” value worked out at 0.0 mg/mL.
The corresponding values for `CCN1CCC(S(=O)(=O)NC(=O)Nc2c3c(cc4c2CCC4)CCC3)CC1` [Form 3C, 1-ethyl-N-((1,2,3,5,6,7-hexahydro-s-indacen-4-yl)carbamoyl)piperidine-4-sulfonamide] are 4.5 mg/mL and 2.6 mg/mL.
Regarding `CCN1CCC(S(=O)(=O)NC(=O)Nc2c3c(cc4c2CCC4)CCC3)CC1` [Form 3D, 1-ethyl-N-((1,2,3,5,6,7-hexahydro-s-indacen-4-yl)carbamoyl)piperidine-4-sulfonamide], in data set [2] (purified water, 20 °C, water, thermodynamic from solid, Limit solubilities after 48 h at 20° C., measured by Q 1H NMR: Free acid form equivalent, 50 mg in purified water 1000 μl (20 vol.), 20° C., 48 h), the solubility – broadly, the dissolved amount per volume that the medium holds – at 48 h came to 3900 µg/mL. The “Observation at 18 hours” value in data set [2] (stirred in purified water (20 vol.) at 20° C., 18 hours) is listed as “suspension”.
With `CCN1CCC(S(=O)(=O)NC(=O)Nc2c3c(cc4c2CCC4)CCC3)CC1` [Form 3E, 1-ethyl-N-((1,2,3,5,6,7-hexahydro-s-indacen-4-yl)carbamoyl)piperidine-4-sulfonamide], in data set [1], the “Limit solubilities … Free acid form equivalent” value came out at 3.3 mg/mL and the “Limit solubilities after 48 h at 20° C.; measured by Q 1H NMR: 4-aminoindacene (level of hydrolytic precursor measured in solution)” value amounted to 0.8 mg/mL.
The matching figures for `CCN1CCC(S(=O)(=O)NC(=O)Nc2c3c(cc4c2CCC4)CCC3)CC1` [Form 3F, 1-ethyl-N-((1,2,3,5,6,7-hexahydro-s-indacen-4-yl)carbamoyl)piperidine-4-sulfonamide]: 2.1 mg/mL and 0.8 mg/mL.
Consider `CCN1CCC(S(=O)(=O)NC(=O)Nc2c3c(cc4c2CCC4)CCC3)CC1` [Form 3G, 1-ethyl-N-((1,2,3,5,6,7-hexahydro-s-indacen-4-yl)carbamoyl)piperidine-4-sulfonamide], for which, in data set [1], the “Limit solubilities … Free acid form equivalent” value came out at 1.5 mg/mL and the “Limit solubilities after 48 h at 20° C.; measured by Q 1H NMR: 4-aminoindacene (level of hydrolytic precursor measured in solution)” value amounted to 0.5 mg/mL.
The corresponding values for `CCN1CCC(S(=O)(=O)NC(=O)Nc2c3c(cc4c2CCC4)CCC3)CC1` [Form 3H, 1-ethyl-N-((1,2,3,5,6,7-hexahydro-s-indacen-4-yl)carbamoyl)piperidine-4-sulfonamide] are 0.6 mg/mL and 0.0 mg/mL.
The matching figures for `CCN1CCC(S(=O)(=O)NC(=O)Nc2c3c(cc4c2CCC4)CCC3)CC1` [Form 3I, 1-ethyl-N-((1,2,3,5,6,7-hexahydro-s-indacen-4-yl)carbamoyl)piperidine-4-sulfonamide]: 0.3 mg/mL and 0.0 mg/mL.
The matching figures for `CCN1CCC(S(=O)(=O)NC(=O)Nc2c3c(cc4c2CCC4)CCC3)CC1` [Form 3J, 1-ethyl-N-((1,2,3,5,6,7-hexahydro-s-indacen-4-yl)carbamoyl)piperidine-4-sulfonamide]: 0.0 mg/mL and 0.1 mg/mL.
For `CCN1CCC(S(=O)(=O)NC(=O)Nc2c3c(cc4c2CCC4)CCC3)CC1.[K]` [Form A, 1-Ethyl-N-((1,2,3,5,6,7-hexahydro-s-indacen-4-yl)carbamoyl)piperidine-4-sulfonamide Monopotassium Form A], the “Thermodynamic stability of polymorphic form” value in data set [3] is “more thermodynamically stable polymorphic form; also recorded: thermodynamically stable”. Further, the “Phase change after grinding (XRPD)” value in data set [4] is recorded as “no significant change of polymorphic form; also recorded: stable to prolonged grinding conditions”. Also, in data set [5], the Hygroscopicity result is on record as “hygroscopic”. In addition, the Non-assimilated water observed entry in data set [5] (depends on preparation and storage conditions) is listed as “up to 3%”. Moreover, the “Solubility (qualitative)” value in data set [6] is given as “good solubility”.
For `CCN1CCC(S(=O)(=O)NC(=O)Nc2c3c(cc4c2CCC4)CCC3)CC1.[K]` [Form D, 1-Ethyl-N-((1,2,3,5,6,7-hexahydro-s-indacen-4-yl)carbamoyl)piperidine-4-sulfonamide Monopotassium Form D], the “Stability in the presence of water” value in data set [6] (water as solvent or co-solvent or humidity (such as >30% RH at 25° C.)) was “stable in the presence of water”.
